Measurements from patent US20170159101A1, “DRUG-RESISTANT P97 ATPASE MUTATIONS” (Cleave Biosciences, Inc., priority 2014, published 2017).

Columns and labels:
Experiment in all cases: Biochemical ATPase assay, mutant p97 vs WT
[1] = molecular target: T1, p97 D649A (Homo sapiens, UniProt P55072, D649A); details: recombinant p97 with D649A mutation
T1 construct: His-tag; made in house; host or cells: E. coli B121[DE3]; (so in the source)
Method: (§1) Proteins were expressed in the B121[DE3] strain of E. coli and purified using His-tag mediated nickel purification and gel filtration chromatography.
(§2) ATPase activity of p97 was measured using an ATP regenerating enzymatic system that couples the conversion of phosphoenolpyruvate (PEP) to pyruvate by pyruvate kinase with ADP conversion to ATP. Pyruvate is then converted to lactate by lactate dehydrogenase, which is coupled to the conversion of NADH to NAD^+. The loss of NADH is measured by a decrease in optical absorbance as […] allowing for real-time measurement of ATPase activity. Dose titrations of a test compound were added to the p97 ATPase assay and ATPase activity was monitored. The rate of ATPase activity was fit to four-parameter sigmoidal curve to calculate IC50 of test compound. IC50 values of test compounds for wild type p97 were compared to IC50 values of mutant proteins to identify fold-changes in the potency of test compounds for mutant p97.

[2] = molecular target: T2, p97 Q473P (Homo sapiens, UniProt P55072, Q473P); details: recombinant p97 with Q473P mutation
T2 construct: His-tag; made in house; host or cells: E. coli B121[DE3]; (so in the source)
Method: as §1, §2

[3] = molecular target: T3, p97 T688A (Homo sapiens, UniProt P55072, T688A); details: recombinant p97 with T688A mutation
T3 construct: His-tag; made in house; host or cells: E. coli B121[DE3]; (so in the source)
Method: as §1, §2

[4] = molecular target: T4, p97 A659T (Homo sapiens, UniProt P55072, A659T); details: recombinant p97 with A659T mutation
T4 construct: His-tag; made in house; host or cells: E. coli B121[DE3]; (so in the source)
Method: as §1, §2

[5] = molecular target: T5, p97 E470D (Homo sapiens, UniProt P55072, E470D); details: recombinant p97 with E470D mutation
T5 construct: His-tag; made in house; host or cells: E. coli B121[DE3]; (so in the source)
Method: as §1, §2

[6] = molecular target: T6, p97 G481A (Homo sapiens, UniProt P55072, G481A); details: recombinant p97 with G481A mutation
T6 construct: His-tag; made in house; host or cells: E. coli B121[DE3]; (so in the source)
Method: as §1, §2

T3 sequence (P55072 whole entry T688A): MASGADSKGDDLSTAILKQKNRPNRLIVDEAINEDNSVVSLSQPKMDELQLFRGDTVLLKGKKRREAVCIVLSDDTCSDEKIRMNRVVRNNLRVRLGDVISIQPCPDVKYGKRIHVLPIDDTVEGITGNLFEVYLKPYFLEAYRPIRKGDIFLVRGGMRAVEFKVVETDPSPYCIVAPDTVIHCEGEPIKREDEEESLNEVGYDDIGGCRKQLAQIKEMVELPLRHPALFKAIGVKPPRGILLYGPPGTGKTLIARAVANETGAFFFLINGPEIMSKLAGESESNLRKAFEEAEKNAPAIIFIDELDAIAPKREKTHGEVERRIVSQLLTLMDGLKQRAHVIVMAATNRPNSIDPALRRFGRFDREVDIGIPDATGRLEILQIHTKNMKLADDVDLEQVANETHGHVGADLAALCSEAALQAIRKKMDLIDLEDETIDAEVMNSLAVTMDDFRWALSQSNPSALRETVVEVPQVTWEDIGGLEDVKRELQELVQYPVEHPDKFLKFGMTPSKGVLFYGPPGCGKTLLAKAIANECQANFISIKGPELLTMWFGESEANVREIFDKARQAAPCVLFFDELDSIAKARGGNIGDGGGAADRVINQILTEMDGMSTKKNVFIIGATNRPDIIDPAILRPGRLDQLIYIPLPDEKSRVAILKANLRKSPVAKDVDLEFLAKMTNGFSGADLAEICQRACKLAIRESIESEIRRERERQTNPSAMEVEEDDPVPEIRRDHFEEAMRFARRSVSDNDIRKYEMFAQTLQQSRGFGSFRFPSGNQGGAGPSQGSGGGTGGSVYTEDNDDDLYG
T6 sequence (P55072 whole entry G481A): as the sequence (P55072 whole entry T688A) above, with G481A, A688T counted along it
T4 sequence (P55072 whole entry A659T): as the sequence (P55072 whole entry T688A) above, with A659T, A688T counted along it
T2 sequence (P55072 whole entry Q473P): as the sequence (P55072 whole entry T688A) above, with Q473P, A688T counted along it
T5 sequence (P55072 whole entry E470D): as the sequence (P55072 whole entry T688A) above, with E470D, A688T counted along it
T1 sequence (P55072 whole entry D649A): as the sequence (P55072 whole entry T688A) above, with D649A, A688T counted along it

Fold Change in IC50 compared to WT Protein [1]: 67.0 fold
Fold Change in IC50 compared to WT Protein [2]: 0.3 fold
Fold Change in IC50 compared to WT Protein [3]: 363.0 fold
Fold Change in IC50 compared to WT Protein [4]: 110.0 fold
Fold Change in IC50 compared to WT Protein [5]: 15.4 fold
Fold Change in IC50 compared to WT Protein [6]: 4.1 fold
SMILES: COc1nc2c(C(N)=O)cccc2n1-c1nc2c(c(NCc3ccccc3)n1)CCCC2 [Compound 5, 1-[4-(benzylamino)-5,6,7,8-tetrahydroquinazolin-2-yl]-2-methoxy-1H-1,3-benzodiazole-4-carboxamide]
